Laboratory results from patent publication US5391744A (priority 1993, dated 1995).
“Also recorded” adds a separate entry of the source. Read-outs that look alike come from different tables or passages of the source.

Columns and labels:
dopamine transporter = dopamine transporter (Rattus norvegicus, UniProt P23977); experiment: displacement of [^3 H]mazindol binding from rat striatal membranes
[1] = test system: rats trained to discriminate cocaine
[2] = test system: rats trained to discriminate cocaine; experiment: animal or person; conditions: Rattus norvegicus, ip, read-out: ED50 (50% cocaine-appropriate responding)
[3] = biological target: T1, dopamine transporter (high-affinity uptake of [^3 H]dopamine into striatal nerve endings) (Rattus norvegicus, UniProt P23977); experiment: inhibition of high-affinity uptake of [^3 H]dopamine into striatal nerve endings (synaptosomes); assay type: biochemical
T1 construct: striatal nerve endings (synaptosomes); from tissue; host or cells: striatal nerve endings (synaptosomes)
T1 sequence (P23977 whole entry): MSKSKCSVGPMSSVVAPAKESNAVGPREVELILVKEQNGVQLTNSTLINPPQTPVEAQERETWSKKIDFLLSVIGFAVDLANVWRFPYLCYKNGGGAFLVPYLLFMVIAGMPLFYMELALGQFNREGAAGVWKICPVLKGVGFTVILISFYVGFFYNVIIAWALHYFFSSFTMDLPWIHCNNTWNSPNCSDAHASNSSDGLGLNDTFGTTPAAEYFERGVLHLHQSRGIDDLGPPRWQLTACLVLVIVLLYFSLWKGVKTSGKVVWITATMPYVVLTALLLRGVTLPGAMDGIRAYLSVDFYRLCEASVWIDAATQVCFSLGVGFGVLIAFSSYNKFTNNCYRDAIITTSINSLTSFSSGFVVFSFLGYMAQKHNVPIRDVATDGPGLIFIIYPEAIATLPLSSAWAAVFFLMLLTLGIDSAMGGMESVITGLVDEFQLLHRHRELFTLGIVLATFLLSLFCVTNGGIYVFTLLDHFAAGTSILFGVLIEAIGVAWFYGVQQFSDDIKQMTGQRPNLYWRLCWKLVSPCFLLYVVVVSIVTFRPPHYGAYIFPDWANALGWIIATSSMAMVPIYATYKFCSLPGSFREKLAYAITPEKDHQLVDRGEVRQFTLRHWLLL

rats = experiment: casual observation of animals treated with 2c; conditions: 0.8 mg/kg 2c; 24 hours following administration
[4] = 0.05 mg/kg, 30 min, mean ± S.E.M.
[5] = 0.05 mg/kg, 120 min, mean ± S.E.M.
[6] = 0.05 mg/kg, 240 min, mean ± S.E.M.
[7] = 0.1 mg/kg, 30 min, mean ± S.E.M.
[8] = 0.1 mg/kg, 120 min, mean ± S.E.M.
[9] = 0.1 mg/kg, 240 min, mean ± S.E.M.
[10] = 0.2 mg/kg, 30 min, mean ± S.E.M.
[11] = 0.2 mg/kg, 240 min, mean ± S.E.M.
[12] = 0.4 mg/kg, 30 min, mean ± S.E.M.
[13] = 0.4 mg/kg, 120 min, mean ± S.E.M.
[14] = 0.4 mg/kg, 240 min, mean ± S.E.M.
[15] = 0.8 mg/kg, 30 min, mean ± S.E.M.

dopamine transporter, sequence (P23977 whole entry): as above

C=C[C@H]1[C@@H](c2ccc(Cl)cc2)C[C@@H]2CC[C@H]1N2C [Compound 2c, 3β-(4-Chlorophenyl)-2β-vinyltropane] was tested, and the IC50 (dopamine transporter) was 1.2 ± 0.3 nM, the “potency compared with 1d” value (dopamine transporter; relative to ester counterpart 1d) was “slightly more potent than the "Win" type compound 1d; also recorded: slightly more potent than its ester counterpart 1d” and the “n/N (animals completing 20 responses / tested)” value ([1]; 0.05 mg/kg, 30 min) was 7/7. For the same compound, the “% Drug responses” value [1, 4] was 19 ± 4%, the “Rate (responses/min)” value [1, 4] was 29.6 ± 9 responses/min and the “n/N (animals completing 20 responses / tested)” value ([1]; 0.05 mg/kg, 120 min) was 7/7. For the same compound, the “% Drug responses” value [1, 5] was 22 ± 14%, the “Rate (responses/min)” value [1, 5] was 18.4 ± 6 responses/min and the “n/N (animals completing 20 responses / tested)” value ([1]; 0.05 mg/kg, 240 min) was 7/7. The “% Drug responses” value [1, 6] was 14 ± 14%, the “Rate (responses/min)” value [1, 6] was 28.3 ± 5 responses/min and the “n/N (animals completing 20 responses / tested)” value ([1]; 0.1 mg/kg, 30 min) was 7/7. The “% Drug responses” value [1, 7] was 40 ± 17%, the “Rate (responses/min)” value [1, 7] was 37.1 ± 6 responses/min and the “n/N (animals completing 20 responses / tested)” value ([1]; 0.1 mg/kg, 120 min) was 7/7. The “% Drug responses” value [1, 8] was 75 ± 16%, the “Rate (responses/min)” value [1, 8] was 25.7 ± 5 responses/min and the “n/N (animals completing 20 responses / tested)” value ([1]; 0.1 mg/kg, 240 min) was 7/7. For the same compound, the “% Drug responses” value [1, 9] was 61 ± 17%, the “Rate (responses/min)” value [1, 9] was 23.5 ± 4 responses/min and the “n/N (animals completing 20 responses / tested)” value ([1]; 0.2 mg/kg, 30 min) was 7/7. For the same compound, the “% Drug responses” value [1, 10] was 83 ± 10%, the “Rate (responses/min)” value [1, 10] was 26.2 ± 6 responses/min and the “n/N (animals completing 20 responses / tested)” value ([1]; 0.2 mg/kg, 120 min) was 7/7. The “% Drug responses” value ([1]; 0.2 mg/kg, 120 min, mean) was 100%, the “Rate (responses/min)” value ([1]; 0.2 mg/kg, 120 min, mean ± S.E.M.) was 46.8 ± 9 responses/min and the “n/N (animals completing 20 responses / tested)” value ([1]; 0.2 mg/kg, 240 min) was 7/7. For the same compound, the “% Drug responses” value [1, 11] was 98 ± 1%, the “Rate (responses/min)” value [1, 11] was 47.9 ± 10 responses/min and the “n/N (animals completing 20 responses / tested)” value ([1]; 0.4 mg/kg, 30 min) was 7/7. For the same compound, the “% Drug responses” value [1, 12] was 99 ± 1%, the “Rate (responses/min)” value [1, 12] was 52.8 ± 9 responses/min and the “n/N (animals completing 20 responses / tested)” value ([1]; 0.4 mg/kg, 120 min, * intense stereotypic response, failed to complete session) was 3/5. The “% Drug responses” value [1, 13] was 72 ± 28%, the “Rate (responses/min)” value [1, 13] was 24.9 ± 18 responses/min and the “n/N (animals completing 20 responses / tested)” value ([1]; 0.4 mg/kg, 240 min, * intense stereotypic response, failed to complete session) was 4/5. The “% Drug responses” value [1, 14] was 91 ± 9%, the “Rate (responses/min)” value [1, 14] was 23.6 ± 18 responses/min and the “n/N (animals completing 20 responses / tested)” value ([1]; 0.8 mg/kg, 30 min) was 7/7. The “% Drug responses” value [1, 15] was 93 ± 5%, the “Rate (responses/min)” value [1, 15] was 33.5 ± 9 responses/min and the “% Drug responses” value ([1]; 0.8 mg/kg, 120 min) was 95%. For the same compound, the “Rate (responses/min)” value ([1]; 0.8 mg/kg, 120 min) was 7.7 responses/min, the “n/N (animals completing 20 responses / tested)” value ([1]; 0.8 mg/kg, 120 min, * intense stereotypic response, failed to complete session) was 1/7 and the “% Drug responses” value ([1]; 0.8 mg/kg, 240 min) was 100%. The “n/N (animals completing 20 responses / tested)” value ([1]; 0.8 mg/kg, 240 min, * intense stereotypic response, failed to complete session) was 3/7, the “Rate (responses/min)” value ([1]; 0.8 mg/kg, 240 min, mean ± S.E.M.) was 39.1 ± 1 responses/min and the complete cocaine-like responding ([1]; 0.2 and 0.4 mg/kg, 30 min injection period) was “induced complete cocaine-line responding in all animals”. The response rates ([1]; in words, across test doses) was “stable across the different test doses of 2c, with the exception of the highest dose (0.8 mg/kg) of 2c which reduced response rates”, the “substitution for the cocaine cue / drug-appropriate responding” value ([1]; in words, dose-dependence over the tested doses) was “dose-dependent substitution for the cocaine cue” and the duration of action ([1]; in words, injection interval 30-240 min) was “long duration of action”. The ED50 ([2]; 0.5 h) was 0.11 mg/kg, the ED50 ([2]; 2 h) was 0.08 mg/kg and the ED50 ([2]; 4 h) was 0.09 mg/kg. For the same compound, the IC50 [3] was 3.2 ± 0.6 nM and the hyperactivity (rats) was “still hyperactive 24 hours following administration”.
